Literature values, collected in Sander's compilation of Henry's law constants.

Experiment: Henry solubility constant Hcp at 298.15 K (mol/(m3 Pa))
Conditions: reference: Schüürmann (2000); cited value

Compound | Henry solubility constant Hcp
Clc1ccc(Cl)cc1 [1,4-dichlorobenzene] | 0.0041
Cc1ccc(C)cc1 [1,4-dimethylbenzene] | 0.0013
Cc1ccccc1O [1-hydroxy-2-methylbenzene] | 8.3
Cc1ccc(O)cc1 [1-hydroxy-4-methylbenzene] | 13
CC(=O)c1ccccc1 [1-phenylethanone] | 0.93
O=Cc1ccccc1 [benzaldehyde] | 0.37
c1ccccc1 [benzene] | 0.0018
Sc1ccccc1 [benzenethiol] | 0.03
Brc1ccccc1 [bromobenzene] | 0.004
Clc1ccccc1 [chlorobenzene] | 0.0027
COc1ccccc1 [methoxybenzene] | 0.069
Cc1ccccc1 [methylbenzene] | 0.0015
O=[N+]([O-])c1ccccc1 [nitrobenzene] | 0.41
